Biological target: T1, c-MYC (Homo sapiens, UniProt P01106)
T1 construct: Recombinant human c-MYC protein (ab169901)
Test: microscale thermophoresis with fluorescently labelled recombinant human c-MYC
Assay type: binding

T1 sequence (P01106 16-454): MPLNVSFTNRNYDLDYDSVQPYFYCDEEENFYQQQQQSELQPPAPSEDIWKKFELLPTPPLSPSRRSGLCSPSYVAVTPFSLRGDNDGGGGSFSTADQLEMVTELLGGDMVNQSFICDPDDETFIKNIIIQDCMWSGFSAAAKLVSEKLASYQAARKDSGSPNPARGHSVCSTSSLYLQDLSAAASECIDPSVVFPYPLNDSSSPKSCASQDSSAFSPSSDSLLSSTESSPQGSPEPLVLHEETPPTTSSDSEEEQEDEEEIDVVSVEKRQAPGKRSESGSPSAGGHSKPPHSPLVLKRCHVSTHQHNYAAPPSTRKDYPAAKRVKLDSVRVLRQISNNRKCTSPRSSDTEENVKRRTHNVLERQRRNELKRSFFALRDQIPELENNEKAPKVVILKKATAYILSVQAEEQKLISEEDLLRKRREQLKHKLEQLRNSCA

- Kd: 1190 ± 240 nM
SMILES: C[C@H]1[C@@H](OCC(CO[C@H]2O[C@@H]3O[C@@]4(C)CC[C@H]5[C@H](C)CC[C@@H]([C@H]2C)[C@@]35OO4)NNC(=O)c2ccncc2)O[C@@H]2O[C@@]3(C)CC[C@H]4[C@H](C)CC[C@@H]1[C@@]24OO3 (stereo partly shown) [ELI-XXIIID-98-2, ELI-XXIII-98-2]

From article PMC10144546, “The Novel Artemisinin Dimer Isoniazide ELI-XXIII-98-2 Induces c-MYC Inhibition, DNA Damage, and Autophagy in Leukemia Cells” (Pharmaceutics, 2023)
